Reference: PMC6627609, “Targeting Quorum Sensing: High-Throughput Screening to Identify Novel LsrK Inhibitors” (International Journal of Molecular Sciences, 2019)
Where a name gives a salt, the structure may show the parent alone. Read-outs that look alike come from different tables or passages of the source.

Key:
[1] = molecular target: LsrK (Salmonella typhimurium, UniProt Q8ZKQ6); assay: biochemical; type: biochemical, S. typhimurium; details: for Inhibition (%): 50 µM
[2] = molecular target: T1, His-LsrK (Salmonella typhimurium, UniProt Q8ZKQ6); assay: Thermal shift assay; type: binding, S. typhimurium; details: mean ± 95% CI
T1 sequence (Q8ZKQ6 whole entry): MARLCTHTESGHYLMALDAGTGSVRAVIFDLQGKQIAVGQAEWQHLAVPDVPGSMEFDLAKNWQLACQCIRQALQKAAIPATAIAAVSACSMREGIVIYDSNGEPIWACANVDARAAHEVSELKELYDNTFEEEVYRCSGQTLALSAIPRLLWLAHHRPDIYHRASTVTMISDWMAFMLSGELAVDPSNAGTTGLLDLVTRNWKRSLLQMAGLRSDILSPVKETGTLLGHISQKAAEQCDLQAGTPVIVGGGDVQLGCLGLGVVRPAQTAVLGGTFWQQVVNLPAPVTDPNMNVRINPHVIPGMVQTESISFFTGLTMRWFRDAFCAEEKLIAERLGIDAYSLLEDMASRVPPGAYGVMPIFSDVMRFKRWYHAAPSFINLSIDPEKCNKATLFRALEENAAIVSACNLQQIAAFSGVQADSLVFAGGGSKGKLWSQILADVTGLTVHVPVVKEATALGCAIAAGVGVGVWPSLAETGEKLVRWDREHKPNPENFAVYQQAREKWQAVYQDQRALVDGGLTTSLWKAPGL
Procedure: Compounds were added to qPCR plates by Echo acoustic dispenser with a DMSO backfill to maintain a constant final concentration of DMSO in each well (the assay is tolerant up to 8% DMSO with no effect on Tm of LsrK). LsrK protein was added at a concentration of 1 µg per well in a volume of 10 µL with 1× Thermo thermal shift dye or 5× Sypro Orange dye (used for aurin tricarboxylic acid as this compound fluoresces with Thermo dye in 25 mM TEA, 200 µM MgCl2, pH 7.1). Appropriate DMSO-only negative controls and 1 mM ATP/DMSO positive controls were included in each test occasion. Using an Applied Biosystems Quant Studio 5 qPCR machine (Thermo Fisher Scientific, Waltham, MA, USA) the following thermal shift protocol was used: step 1—hold at 25 °C for 1 min; step 2—heat at 0.05 °C/s dissociation then hold at 99 °C for 1 min. Filter setting for Thermo dye: Ex/Em 580/623 nm and for Sypro Orange dye: Ex/Em 470/520 nm.

[3] = tested on: mouse; details: ref MicroSource annotations, cited from earlier work
[4] = molecular target: T1, His-LsrK; assay: MST assay; type: binding, S. typhimurium; details: 95% CI
[5] = tested on: His-tagged control peptide or SDS denatured His-LsrK; assay: MST assay, specificity controls; type: binding
[6] = tested on: E. coli LW7 pLW11; assay: AI-2 QS interference assay; type: cell-based; details: in the presence of PAβN
[7] = tested on: rat; details: cited from earlier work
[8] = ip, ref MicroSource annotations
[9] = po, ref MicroSource annotations

Chain of LsrK (Q8ZKQ6 whole entry): as above

| Compound | inhibition at 50 µM [1] [%] | Inhibition (%) [1] | other results |
| --- | --- | --- | --- |
| CCCCCCCCCCCCCCCCC(C(=O)O)C(O)(CC(=O)O)C(=O)O (stereo not drawn) [AGARIC ACID] | 157 | – | IC50 [1]: 7 µM; shift in the Tm of His-LsrK ([2]; 10 µM): −4.7 ± 0.70 °C |
| CN[C@@H]1[C@@H](O[C@H]2O[C@H](CO)[C@@H](N)[C@H](O)[C@H]2O)OC2C[C@@H](N)[C@@H](O[C@H]3[C@H](O)[C@@H](O)[C@H](N)C[C@@H]3N)OC2[C@@H]1O (stereo partly drawn) [APRAMYCIN] | 3 | – | LD50 ([3]; iv): 280 mg/kg |
| O=C(O)C1=CC(=C(c2ccc(O)c(C(=O)O)c2)c2ccc(O)c(C(=O)O)c2)C=CC1=O [AURIN TRICARBOXYLIC ACID] | 96 | – | IC50 [1]: 1 µM; shift in the Tm of His-LsrK ([2]; 20 µM): −0.85 ± 0.38 °C; Kd [4]: 0.408 ± 0.0699 µM; binding in MST to control peptide or SDS denatured His-LsrK [5]: no binding; inhibition of AI-2 mediated QS ([6]; 10 µM): No significant activity; inhibition of AI-2 mediated QS ([6]; 50 µM): No significant activity |
| C[C@@H]1CC[C@@]2(OC1)O[C@H]1C[C@H]3[C@@H]4CC=C5C[C@@H](O)CC[C@]5(C)[C@H]4CC[C@]3(C)[C@H]1[C@@H]2C [DIOSGENIN] | 0 | – | LD50 [7, 8]: 4872 mg/kg; LD50 ([3]; po): > 8000 mg/kg |
| C=C1CC[C@H](O)C/C1=C/C=C1\CCC[C@]2(C)[C@@H]([C@H](C)/C=C/[C@H](C)C(C)C)CC[C@@H]12 [ERGOCALCIFEROL] | 56 | – | LD50 ([7]; in vivo, po): 56 mg/kg |
| CC(C)=CCC[C@]1(C)C=Cc2c(O)c3c(c(CC=C(C)C)c2O1)O[C@]12C(=C[C@@H]4C[C@H]1C(C)(C)O[C@@]2(C/C=C(/C)C(=O)O)C4=O)C3=O [GAMBOGIC ACID] | 89 | – | LD50 [7, 8]: 88 mg/kg |
| C[C@H](CCC(=O)O)[C@H]1CC[C@H]2[C@@H]3CC[C@@H]4C[C@H](O)CC[C@]4(C)[C@H]3CC[C@]12C [LITHOCHOLIC ACID] | 2 | – | LD50 ([3]; po): 3900 mg/kg |
| CC[C@@H](C)C(=O)O[C@H]1[C@H](O)[C@H]2[C@@H](CN3C[C@@H](C)CC[C@H]3[C@@]2(C)O)[C@@H]2C[C@]34O[C@]5(O)[C@@H](OC(=O)[C@@](C)(O)CC)CC[C@@]3(C)[C@@H]5[C@@H](OC(C)=O)[C@@H](OC(C)=O)[C@H]4[C@@]21O [PROT[…]] | 1 | – | LD50 [7, 9]: 5 mg/kg |
| CC(C)[C@@H]1NC(=O)[C@H](C)OC(=O)[C@@H](C(C)C)NC(=O)[C@@H](C(C)C)OC(=O)[C@H](C(C)C)NC(=O)[C@H](C)OC(=O)[C@@H](C(C)C)NC(=O)[C@@H](C(C)C)OC(=O)[C@H](C(C)C)NC(=O)[C@H](C)OC(=O)[C@@H](C(C)C)NC(=O)[C@@H](C(C)C)OC1=O [VALINOMYCIN] | 1 | – | LD50 [7, 9]: 4 mg/kg |
| COc1ccc(CCN(C)CCCC(C#N)(c2ccc(OC)c(OC)c2)C(C)C)cc1OC (stereo not drawn) [VERAPAMIL HYDROCHLORIDE] | 1 | – | – |
| OC1CCCCC1N1CCC(c2ccccc2)CC1 (stereo not drawn) [VESAMICOL HYDROCHLORIDE] | 1 | – | – |
| Nc1ncnc2c1ncn2[C@@H]1O[C@H](CO)[C@@H](O)[C@@H]1O [VIDARABINE] | 0 | – | – |
| C=CC(N)CCC(=O)O (stereo not drawn) [VIGABATRIN] | 1 | – | – |
| O=c1c2ccccc2oc2ccccc12 [XANTHONE] | 1 | – | – |
| Nc1nc(=O)c2[nH]c(=O)cnc2[nH]1 [XANTHOPTERIN] | 2 | – | – |
| COc1cc(O)c(C(C)=O)c(OC)c1 [XANTHOXYLIN] | 0 | – | – |
| Cc1cccc(C)c1N=C1NCCCS1 [XYLAZINE] | 0 | – | – |
| Cc1cc(C(C)(C)C)cc(C)c1CC1=NCCN1 [XYLOMETAZOLINE HYDROCHLORIDE] | 1 | – | – |
| O.O=C(O)[C@@H]1[C@H]2C[C@H]3c4[nH]c5ccccc5c4CCN3C[C@@H]2CC[C@@H]1O [YOHIMBIC ACID HYDRATE] | – | 1 | – |

| Compound | inhibition at 50 µM [1] [%] | Inhibition (%) [1] | other results |
| --- | --- | --- | --- |
| Cc1cn([C@H]2C[C@H](N=[N+]=[N-])[C@@H](CO)O2)c(=O)[nH]c1=O [ZIDOVUDINE [AZT], ZIDOVUDINE] | 36 | – | – |
| C=CCCCCCCCCC(=O)[O-].C=CCCCCCCCCC(=O)[O-].[Zn+2] [ZINC UNDECYLENATE] | – | 21 | – |
| CC(C)/C(O)=C1/C(=O)O[C@@H](c2ccoc2)[C@]2(C)C(O)[C@@H](O)[C@@]34OC5(C)OC67CC(C)(C(O)[C@]6(O)[C@@H](O)[C@]3(O5)C12)[C@H](CC(=O)O)[C@]74C (stereo partly drawn) [[…] OF BUSSEIN] | 1 | – | – |
| CC(C)=CCCC1(C)C=Cc2c(O)c3c(c(CC=C(C)C)c2O1)OC12C(=CCCC1C(C)(C)O[C@@]2(C/C=C(\C)C(=O)O)C(=O)O)C3=O (stereo partly drawn) [[…]] | 75 | – | – |
| CC(C)NNC(=O)c1ccncc1 [[…]] | 0 | – | – |
| CCCCCC(=O)Cc1cc(O)cc(O)c1C(=O)Oc1cc(CC(=O)CCCCC)c(C(=O)O)c(OC)c1 [[…]] | 0 | – | – |
| COC(=O)CC1C(C)(C)C(OC(C)=O)[C@@H]2[C@@H](OC(C)=O)[C@]34O[C@@]2(O)[C@]1(C)C3CC[C@]1(C)C4=CC(=O)O[C@H]1c1ccoc1 (stereo partly drawn) [[…]] | 2 | – | – |
| COc1cc(-c2coc3cc(O)c(OC)c(O)c3c2=O)cc(O)c1OC [[…]] | 5 | – | – |
| Cc1cc(O)c(C=O)c2c1C(=O)Oc1c(C)c(O)c3c(c1O2)C(O)OC3=O (stereo not drawn) [[…]] | 145 | – | – |
| O=C(/C=C/C(=O)Oc1ccccc1C(=O)O)Oc1ccccc1C(=O)O [[…]] | 2 | – | – |
| N#C/C(=C\c1cccc(O)c1)C(=O)O [alpha-CYANO-3-HYDROXYCINNAMIC ACID] | 2 | – | – |
| N#C/C(=C\c1ccc(O)cc1)C(=O)O [alpha-CYANO-4-HYDROXYCINNAMIC ACID] | 1 | – | – |
| CC(=O)O[C@@H]1CC2C(C)(C)[C@H](O)CC[C@]2(C)C2CC[C@@]3(C)[C@H](c4ccoc4)OC(=O)C4OC43[C@@]21C (stereo partly drawn) [alpha-DIHYDROGEDUNOL] | – | 1 | – |
| COc1cc2c(cc1OC)[C@@H]1C(=O)c3c(O)cc4c(c3O[C@@H]1CO2)C=CC(C)(C)O4 [alpha-TOXICAROL] | – | 10 | – |
| CC1=C(/C=C/C(C)=C/C=C/C(C)=C/C=C/C=C(C)/C=C/C=C(C)/C=C/C2=C(C)CCCC2(C)C)C(C)(C)CCC1 [beta-CAROTENE] | 1 | – | – |
| C/C=C(\C)C(=O)O[C@H]1[C@H](OC(C)=O)[C@@]2(CO)C(CC1(C)C)C1=CC[C@@H]3[C@@]4(C)CC[C@H](O[C@@H]5O[C@H](C(=O)O)[C@@H](O[C@@H]6O[C@H](CO)[C@@H](O)[C@H](O)[C@H]6O)[C@H](O)[C@H]5O[C@@H]5O[C@H](CO)[C@@H](O)[C@H](O)[C@H]5O)[C@H](CO)C4CC[C@@]3(C)[C@@]1(C)C[C@H]2O (stereo partly drawn) [beta-ESCIN] | 129 | – | – |
| NC(C(=O)O)C(O)C(=O)O (stereo not drawn) [d.l-threo-3-HYDROXYASPARTIC ACID] | – | 3 | – |
| CC(=O)Oc1cccc(C)c1 [meta-CRESYL ACETATE] | – | 1 | – |
| AGELASINE | – | 102 | – |

| Compound | inhibition at 50 µM [1] [%] | Inhibition (%) [1] | other results |
| --- | --- | --- | --- |
| ASARININ (-) | – | 1 | – |
| BACITRACIN | – | 5 | – |
| BENZALKONIUM CHLORIDE | – | 121 | – |
| BERBAMINE HYDROCHLORIDE | – | 1 | – |
| CHLOROPHYLLIDE Cu COMPLEX Na SALT | – | 104 | – |
| CRESOL | – | 0 | – |
| GARLICIN | – | 10 | – |
| GRAMICIDIN | – | 0 | – |
| HECOGENIN | – | 2 | – |
| IVERMECTIN | – | 1 | – |
| KHAYANTHONE | – | 11 | – |
| MANGANESE TETRAKIS(4-CARBOXYPHENYL)PORPHYRIN CHLORDE | – | 1 | – |
| MECLOCYCLINE SULFOSALICYLATE | – | 93 | – |
| METHIONINE SULFOXIMINE (L) | – | 2 | – |
| NEOMYCIN SULFATE | – | 1 | – |
| POLYMYXIN B SULFATE | – | 48 | – |
| TANNIC ACID | – | 94 | – |
| TEICOPLANIN [TEICOPLANIN [A(2-1) shown]] | – | 148% | – |
